Measurements: US12286437B2, “Cardiac sarcomere inhibitors” (Cytokinetics, Inc., priority 2021, dated 2025)
Where two headings read alike, the source gives them in different places.

Legend:
[1] = Mouse single dose pharmacokinetics; format: in vivo, C57BL/6 mice; conditions: male, C57BL/6, plasma, 0.5 mg/kg, IV; for Vd: read-out: Vss; for half-life: read-out: t½ (converted)
Procedure: Male C57BL/6 mice (18-25 g, 6-8 weeks old) were obtained from Zhejiang Vital River Laboratory Animal Technology Co., Ltd. All animals for IV administration had free access to food and water. The IV dosing was performed through tail vein. The IV dose solution for the Test Articles was prepared in 10% DMA/20% PG/70% HPβCD solution (40% w/v aqueous HPβCD) at a concentration of 0.1 mg/mL. The oral dosing suspension was prepared by suspending Test Article in 0.5% HPMC/0.1% Tween 80 in water at a concentration 0.2 mg/mL. Concentrations of IV and PO doses were measured at the end of the study. Pharmacokinetic (PK) parameters were calculated using the nominal dose values if the measured values were within 20% of the nominal values. A group of 15 mice received the IV dose where the volume was 5 mL/kg. Another group of 15 mice received by oral gavage of Test Article at 1 mg/kg. The oral dose volume was 5 mL/kg. Sparse blood samples were collected from groups of three mice via retro-orbital bleeding, placed into a K2EDTA microtainer tube and maintained on ice until centrifugation to obtain plasma. Each designated group of mice were bled at two-time points. The time points were predose (PO only), 5 (IV only), 15, 30 minutes, 1, 2, 4, 6, 8 and 24 hours postdose. Blood samples were centrifuged and the collected plasma was stored at −80° C. until analysis. Plasma samples were analyzed for Test Article concentrations using an LC/MS/MS method. Briefly, a 50 μL aliquot of each plasma sample was mixed with 100 μL of acetonitrile that contained an internal standard (IS). The mixture was vortexed and centrifuged. Ten (10) μL of the resulting solution was injected onto a reverse-phase C18 column and the resultant peaks detected on a LC/MS/MS equipped with a turbo ionspray ionization source. Sample concentrations below the limit of quantification (BLQ) were treated as zero for PK calculations. Composite PK parameters were estimated from a maximum of two sampling points per mouse and three mice per sampling point and the sparse data option of WinNonlin was used for noncompartmental analysis of the concentration-time data (Phoenix WinNonLin software, version 64; Pharsight, Mountain View, CA). The elimination rate constant (k) was calculated as the absolute value of the slope of the linear regression of logarithm of the concentration versus time for the last three data points of the concentration-time profiles. Apparent elimination half-life (t1/2) values were calculated as ln(2)/k. Area under the concentration-time curve (AUC) values were estimated using linear trapezoidal method. AUCt values were calculated from the dosing time to the last measurable concentration. AUC∞ values were calculated as the sum of the corresponding AUCt and the ratio of the last detectable concentration divided by k. Plasma clearance (CL) was calculated from Dose/AUC∞. Mean resident time (MRT) was estimated by moment analysis. Volume of distribution at steady state (Vss) was calculated from MRT∞×CL. Maximum concentration (Cmax) and time to reach Cmax (tmax) were recorded as observed. Bioavailability was calculated dAUC∞,po/dAUC∞,iv×100% where dAUC was the dose normalized AUC value. Data for compounds tested are provided in Table B. Compounds tested were prepared in accordance with the synthetic procedures described herein.

CYP2B6 = target: T1, CYP2B6 (Homo sapiens, UniProt P20813); assay: Time-dependent inhibition of CYP2B6 in human liver microsomes; format: in vitro ADME; conditions: for (% Activity NADPH T0)/(% Activity NADPH T30): fold change; for activity at 30 min, 25 µM / activity at 0 min, 25 µM / activity at 30 min, 50 µM / activity at 0 min, 50 µM: pooled human liver microsomes, human liver microsomes; for activity at 30 min, 25 µM / activity at 30 min, 50 µM: after 30 minutes incubation, read-out: % Activity NADPH T30; for activity at 0 min, 25 µM / activity at 0 min, 50 µM: time zero, read-out: % Activity NADPH T0
T1 construct: Pooled human microsomes and selective CYP probe substrates were used; from tissue; host or cells: pooled human liver microsomes
T1 sequence (P20813 1-491): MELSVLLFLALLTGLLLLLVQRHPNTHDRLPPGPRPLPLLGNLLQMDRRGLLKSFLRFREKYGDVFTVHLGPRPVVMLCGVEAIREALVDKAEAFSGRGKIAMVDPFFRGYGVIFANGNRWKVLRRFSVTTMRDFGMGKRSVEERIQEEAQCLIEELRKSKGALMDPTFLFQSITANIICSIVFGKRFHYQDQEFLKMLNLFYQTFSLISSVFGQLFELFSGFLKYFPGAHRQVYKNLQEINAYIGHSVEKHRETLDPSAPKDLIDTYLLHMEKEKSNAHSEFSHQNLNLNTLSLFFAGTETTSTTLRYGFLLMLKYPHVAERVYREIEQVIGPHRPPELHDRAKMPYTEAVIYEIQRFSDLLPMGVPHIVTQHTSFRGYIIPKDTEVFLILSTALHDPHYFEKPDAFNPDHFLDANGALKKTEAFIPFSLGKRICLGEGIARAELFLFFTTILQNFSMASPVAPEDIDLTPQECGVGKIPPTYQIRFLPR
Procedure: (§1) An assessment of the time-dependent Inhibitory Potential of the test compounds against Principal Human Cytochrome P450 Isozymes using Human Liver Microsomes was also carried out using standard methods (Grimm et al, Drug Metab. Dispos., July; 37(7):1355-70. doi: 10.1124/dmd.109.026716, 2009). Pooled human microsomes and selective CYP probe substrates were used for in vitro assessment of test compounds at 25 and 50 μM as time-dependent inhibitors of […] human hepatic cytochrome P450 isozymes (CYP1A2, 2B6, 2C9, 2C19, 2D6, and 3A4). LC-MS/MS was used to quantify metabolite formation. The inhibition of each P450 enzyme in human liver microsomes was measured as the percentage decrease in the activity of marker metabolite formation as measured by LC-MS/MS compared to non-inhibited controls (=100% activity) at time zero and after 30 minutes incubation. The occurrence of any time dependent inhibition was then expressed as the fold change in enzyme activity at time zero relative to the activity after 30 minutes incubation.

CYP2C9 = target: T2, CYP2C9 (Homo sapiens, UniProt P11712); assay: Time-dependent inhibition of CYP2C9 in human liver microsomes; format: in vitro ADME; conditions: for (% Activity NADPH T0)/(% Activity NADPH T30): fold change; for activity at 30 min, 25 µM / activity at 0 min, 25 µM / activity at 30 min, 50 µM / activity at 0 min, 50 µM: pooled human liver microsomes, human liver microsomes; for activity at 30 min, 25 µM / activity at 30 min, 50 µM: after 30 minutes incubation, read-out: % Activity NADPH T30; for activity at 0 min, 25 µM / activity at 0 min, 50 µM: time zero, read-out: % Activity NADPH T0
T2 construct: Pooled human microsomes and selective CYP probe substrates were used; from tissue; host or cells: pooled human liver microsomes
T2 sequence (P11712 whole entry): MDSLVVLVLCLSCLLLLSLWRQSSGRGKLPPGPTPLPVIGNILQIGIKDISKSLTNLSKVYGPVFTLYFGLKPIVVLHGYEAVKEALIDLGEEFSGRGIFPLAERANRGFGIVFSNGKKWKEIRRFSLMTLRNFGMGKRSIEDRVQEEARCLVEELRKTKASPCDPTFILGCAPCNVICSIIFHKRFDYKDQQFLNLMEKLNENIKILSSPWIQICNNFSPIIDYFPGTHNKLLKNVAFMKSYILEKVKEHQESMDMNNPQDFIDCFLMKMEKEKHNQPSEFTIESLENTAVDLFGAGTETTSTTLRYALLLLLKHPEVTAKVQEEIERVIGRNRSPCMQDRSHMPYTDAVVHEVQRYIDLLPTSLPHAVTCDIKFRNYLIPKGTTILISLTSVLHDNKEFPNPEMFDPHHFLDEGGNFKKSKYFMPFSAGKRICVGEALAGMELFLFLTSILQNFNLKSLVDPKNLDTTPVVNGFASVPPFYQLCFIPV
Procedure: as §1

CYP3A4 = target: T3, CYP3A4 (Homo sapiens, UniProt P08684); assay: Time-dependent inhibition of CYP3A4 in human liver microsomes (testosterone and midazolam probes); format: in vitro ADME; conditions: for (% Activity NADPH T0)/(% Activity NADPH T30): fold change; for activity at 30 min, 25 µM / activity at 30 min, 50 µM: human, after 30 minutes incubation, read-out: % Activity NADPH T30; for activity at 30 min, 25 µM / activity at 30 min, 50 µM / activity at 0 min, 25 µM / activity at 0 min, 50 µM: pooled human liver microsomes; for activity at 0 min, 25 µM / activity at 0 min, 50 µM: human liver microsomes, time zero, read-out: % Activity NADPH T0
T3 construct: Pooled human microsomes and selective CYP probe substrates were used; from tissue; host or cells: pooled human liver microsomes
T3 sequence (P08684 whole entry): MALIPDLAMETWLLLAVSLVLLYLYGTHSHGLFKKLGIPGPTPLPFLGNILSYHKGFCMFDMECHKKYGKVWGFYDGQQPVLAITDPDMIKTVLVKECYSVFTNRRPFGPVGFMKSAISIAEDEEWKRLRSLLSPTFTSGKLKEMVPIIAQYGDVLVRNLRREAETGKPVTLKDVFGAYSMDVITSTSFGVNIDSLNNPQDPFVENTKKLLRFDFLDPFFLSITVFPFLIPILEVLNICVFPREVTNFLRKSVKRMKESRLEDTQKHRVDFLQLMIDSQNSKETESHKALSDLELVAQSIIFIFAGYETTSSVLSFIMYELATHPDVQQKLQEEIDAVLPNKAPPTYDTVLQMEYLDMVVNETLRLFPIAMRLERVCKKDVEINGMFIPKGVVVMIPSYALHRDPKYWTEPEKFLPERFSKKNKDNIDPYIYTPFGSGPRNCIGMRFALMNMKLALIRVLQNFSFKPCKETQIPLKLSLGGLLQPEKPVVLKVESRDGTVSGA
In short: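 Pooled human liver microsomes with selective CYP probe substrates were exposed to compounds at 25 and 50 μM. Marker metabolite formation was quantified by LC-MS/MS as % of uninhibited control at time zero and after 30 min incubation. Time-dependent inhibition is expressed as the fold change in activity between time zero and 30 min.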

[2] = CYP3A4-M (midazolam probe substrate), 25 μM
[3] = CYP3A4-M (midazolam probe substrate), 50 μM
[4] = CYP3A4-T (testosterone probe substrate), 25 μM
[5] = CYP3A4-T (testosterone probe substrate), 50 μM

Row | Structure (SMILES) | clearance [1] [mL/min/kg] | Vd [1] [L/kg] | half-life [1] [h] | (% Activity NADPH T0)/(% Activity NADPH T30) (CYP2B6; CYP2B6, 25 μM) | (% Activity NADPH T0)/(% Activity NADPH T30) (CYP2B6; CYP2B6, 50 μM) | activity at 30 min, 25 µM (CYP2B6; CYP2B6, 25 μM) [%] | activity at 0 min, 25 µM (CYP2B6; CYP2B6, 25 μM) [%] | activity at 30 min, 50 µM (CYP2B6; CYP2B6, 50 μM) [%] | activity at 0 min, 50 µM (CYP2B6; CYP2B6, 50 μM) [%] | (% Activity NADPH T0)/(% Activity NADPH T30) (CYP2C9; CYP2C9, 25 μM) | (% Activity NADPH T0)/(% Activity NADPH T30) (CYP2C9; CYP2C9, 50 μM) | activity at 30 min, 25 µM (CYP2C9; CYP2C9, 25 μM) [%] | activity at 0 min, 25 µM (CYP2C9; CYP2C9, 25 μM) [%] | activity at 30 min, 50 µM (CYP2C9; CYP2C9, 50 μM) [%] | activity at 0 min, 50 µM (CYP2C9; CYP2C9, 50 μM) [%] | (% Activity NADPH T0)/(% Activity NADPH T30) (CYP3A4; [2]) | (% Activity NADPH T0)/(% Activity NADPH T30) (CYP3A4; [3]) | (% Activity NADPH T0)/(% Activity NADPH T30) (CYP3A4; [4]) | (% Activity NADPH T0)/(% Activity NADPH T30) (CYP3A4; [5]) | activity at 30 min, 25 µM (CYP3A4; [2]) [%] | other results
1 | CC(C)N1CC(=O)N(Cc2ccc(Cl)c(F)c2)C2(CN(c3cccnn3)C2)C1=O [Compound 8, 5-(4-chloro-3-fluorobenzyl)-8-isopropyl-2-(pyridazin-3-yl)-2,5,8-triazaspiro[3.5]nonane-6,9-dione] | 132 | 5.14 | 0.66 | 0.9 | 0.9 | 97 | 83 | 100 | 88 | 1.0 | 1.0 | 107 | 104 | 109 | 112 | 1.0 | 1.0 | 1.0 | 1.0 | 100 | activity at 30 min, 50 µM (CYP3A4; [3]): 100%; activity at 30 min, 25 µM (CYP3A4; [4]): 100%; activity at 30 min, 50 µM (CYP3A4; [5]): 100%; activity at 0 min, 25 µM (CYP3A4; [2]): 100%; activity at 0 min, 50 µM (CYP3A4; [3]): 100%; activity at 0 min, 25 µM (CYP3A4; [4]): 100%; activity at 0 min, 50 µM (CYP3A4; [5]): 100%
2 | C[C@H]1CC[C@H](N2CC(=O)N(Cc3ccc(F)c(Cl)c3)C3(CN(C(N)=O)C3)C2=O)CC1 [Compound 7, 5-(3-chloro-4-fluorobenzyl)-8-((1r,4r)-4-methylcyclohexyl)-6,9-dioxo-2,5,8-triazaspiro[3.5]nonane-2-carboxamide] | 15 | 2.95 | 2.5 | 0.9 | 1.1 | 74 | 70 | 70 | 78 | 1.3 | 1.4 | 75 | 94 | 61 | 87 | 1.0 | 1.0 | 1.0 | 1.0 | 100 | (% Activity NADPH T0)/(% Activity NADPH T30) (CYP2C9; CYP2C9, 50 μM, listed as compound 7): 1.3; activity at 30 min, 50 µM (CYP3A4; [3]): 100%; activity at 30 min, 25 µM (CYP3A4; [4]): 100%; activity at 30 min, 50 µM (CYP3A4; [5]): 100%; activity at 0 min, 25 µM (CYP3A4; [2]): 100%; activity at 0 min, 50 µM (CYP3A4; [3]): 100%; activity at 0 min, 25 µM (CYP3A4; [4]): 100%; activity at 0 min, 50 µM (CYP3A4; [5]): 100%
